Assay results taken from patent US5872124A, “Treatment of diseases of the central nervous system using uric acid as a scavenger of peroxynitrite” (Thomas Jefferson University, priority 1996, dated 1999).
Entries after “also recorded” stand apart in the source; their conditions may differ. Like-named read-outs stand apart in the source and are kept apart here.

Experiments:
[1] = system: experimental allergic encephalomyelitis (EAE), PLP immunization; assay: Clinical severity of PLP-induced EAE in SWXJ-14 mice; assay type: in vivo
Protocol: FIG. 2. Effect of daily administration of c-PTIO (carboxy-PTIO) on EAE in SWXJ-14 mice. EAE was induced in SWJX-14 mice by two subcutaneous immunizations (d.0 and d.7) of […] PLP in CFA over two injection sites. Mice (N=3) were treated beginning on day 5 post-immunization with 2 mg/mouse c-PTIO […] i.p. and was continued until day 16 post-immunization (day 0 being the day of first immunization). Mean severity scores were graded as detailed in Table 1.
FIG. 4. Effect of D609 on the development of EAE in SWXJ-14 mice. SWXJ-mice were immunized with PLP as detailed for FIG. 2. Mice (n=2) were treated i.p. with 1 mg/mouse D609 from day 5 through day 14 post-immunization. Mean severity scores were graded as detailed in Table 1.
FIG. 12. Effect of the administration of various doses of uric acid on EAE in SWXJ-14 mice. EAE was induced in SWXJ-14 mice by two subcutaneous immunizations (d.0 and 7) of […] PLP in CFA over two injection sites. Mice (n=5) were treated once daily, beginning on day 5 post-immunization, with the indicated doses of uric acid. Mean severity scores were graded as detailed in Table 1.
(§1) Induction of EAE in rats by adoptive transfer of MBP-specific T cells or in SJL or SWXJ-14 mice by immunization with MBP or PLP 139-151, a peptide derived from […] [8], results in variable disease. We have scored the clinical systems of EAE as tabulated below.
(§2) Severity scores and symptoms of Experimental Allergic
(§3) 1 piloerection, tail weakness
(§4) 3 hind limb weakness/paralysis
(§5) 4 hind and forelimb paralysis
(§6) In FIG. 1, EAE was elicited in 11 week old female Lewis rats by the adoptive transfer of 20×10^6 cells of the MBP-specific line 5HGBP.G5 activated by stimulation with MBP and syngeneic APC 48 hours previously and NO levels measured 5 days after transfer. In SWXJ-14 mice, EAE was triggered by two subcutaneous immunizations (d.0 and 7) with 100 μg PLP in CFA over two injection sites, and NO levels measured 18 days later. Results expressed represent the mean values obtained from a minimum of 4 animals. Peak severity of the symptoms of EAE ranged from 2-3 for the rats and 4-5 for the mice. NO was semi-quantitated using spin trapping with DETC and EPR-spectroscopy as described previously.
(§7) Clinical symptoms manifest as an ascending paralysis approximately 13 days after immunization and the disease rapidly progresses to its fatal endpoint by day 16-20. […] NO levels in the brains and spinal cords of animals treated with a single daily dose of PTIO were semi-quantitated by spin trapping and EPR spectroscopy on day 17 after immunization, one day after treatment was terminated. […] We expect that the removal of NO by PTIO should not necessarily interfere with the induction of the response responsible for NO production and that as the supplied PTIO is used up NO levels should rapidly return to control values.
(§8) In contrast to SJL mice, SWX mice immunized with PLP undergo a progressive,often fatal form of EAE. Clinical symptoms manifest as an ascending paralysis approximately 13 days after immunization and the disease rapidly progresses to its fatal endpoint by days 16-20. […] We conclude that the amount of carboxy-PTIO we administered, especially considering the short in vivo half life of the compound, was only sufficient to delay the onset of the EAE in the SWXJ-14 mouse.
NO is not universally considered to be a molecule with significant in vivo toxicity and peroxynitrite is thought to be the more toxic molecule produced by activated inflammatory cells resulting from the interaction of NO and superoxide. We would henceforth expect that removal of NO would reduce peroxynitrite formation. To determine whether NO or peroxynitrite is more likely to be ultimately responsible for clinical disease in EAE we have performed a series of experiments using uric acid, a known scavenger of peroxynitrite, to treat EAE induced in SWXJ-14 mice by immunization with PLP.

A549 cells = assay: Nitrite production by activated A549 cells (Griess reaction); assay type: cell-based, human; conditions: 50 μg/ml; IL-1β, γIFN, TNFα activated
Protocol: FIG. 5. […] The accumulation of nitrite over time was measured in the presence and absence of D609. Human A549 cells were activated with IL-1β (100 units/ml), γIFN (500 units/ml) and TNFα (10 ng/ml), and the accumulation of nitrite over time was measured using the Griess reaction. The concentration of nitrite was calculated using a standard solution of nitrite in culture media.
We have employed the human lung carcinoma cell line A549 (ATCC) and, as for comparison, the mouse monocyte-macrophage cell line RAW 264.7 (ATCC) as producers of NO. Treatment of RAW 264.7 cells with 1 μg/ml of LPS or A549 cells with IL-1β (100 units/ml), γIFN (500 units/ml), and TNFα (10 ng/ml) stimulates the production of NO which can be detected by the accumulation of nitrite in culture supernatants. Using these methods of stimulation, RAW cells produced up to 100 μM of nitrite during 24 hours of culture while the A549 cells generally produced roughly 10 fold less nitrite in our experiments.

iNOS gene [2] = assay: Transcriptional activation of the iNOS gene in A549 cells (gel-shift assays); assay type: cell-based; conditions: 50 μg/ml, human A549 cells
iNOS gene [3] = assay: Transcriptional activation of the iNOS gene in RAW 264.7 cells (gel-shift assays); assay type: cell-based; conditions: 50 μg/ml, mouse RAW 264.7 cells
NF-κB [4] = assay: Activation of transcription factor NF-κB in A549 cells; assay type: cell-based; conditions: 50 μg/ml, human A549 cells
NF-κB [5] = assay: Activation of transcription factor NF-κB in RAW 264.7 cells; assay type: cell-based; conditions: 50 μg/ml, mouse RAW 264.7 cells
[6] = system: phosphatidylcholine-specific phospholipase C (PC-PLC); conditions: via blocking activation of PC-PLC [16]; cited from earlier work
[7] = system: experimental allergic encephalomyelitis (EAE), MBP-specific T cell transfer; assay: Clinical severity of adoptive transfer EAE in Lewis rats; assay type: in vivo; conditions: EAE mediated by T cell transfer
Description: as §1
______________________________________
as §2, §3, §4, §5, §6
Rats were injected i.v. with 20×10^6 MBP-specific CD4 T cells activated in vitro. Two days later the animals were treated with a single dose of either PTIO (20 mg) or a mixture of PTIO (20 mg), indomethacin (1 mg), and allopurinol (13 mg). Treatment was continued on a daily basis until day 4 and animals were sacrificed for NO measurement the following day.

[8] = system: experimental allergic encephalomyelitis (EAE), immunization-elicited; assay: Clinical severity of immunization-elicited EAE in SJL mice; assay type: in vivo
Description: as §1, §2, §3, §4, §5
(§9) SJL mice are immunized subcutaneously with pMBP in adjuvant to induce EAE, from which they often recover. Commencing ten days post-immunization, groups of mice (n=6) were treated once daily with 2 mg of either PTIO or carboxy-PTIO intraperitoneally and observed for clinical signs of EAE which were graded as detailed in Table 1. […] At 18 days […], NO determinations were performed in several mice from each group.

nitric oxide (NO) [9] = assay: NO levels in spinal cord and brain of SJL mice with EAE; assay type: in vivo
Protocol: as §9

nitric oxide (NO) [10] = assay: NO levels in brain and spinal cord of SWXJ-14 mice with EAE (spin trapping with DETC, EPR); assay type: in vivo
Protocol: FIG. 3. Effect of daily administration of c-PTIO on NO levels in the brain and spinal cord of SWXJ-14 mice immunized with PLP. SWXJ-14 mice were immunized as described below for FIG. 1. Beginning 4 days post immunization, mice (n=7) were treated with 2 mg c-PTIO given i.p. until 16 days post-immunization. Mean severity scores were graded as detailed in Table 1. Mean nitric oxide levels in brain and spinal cord were semi-quantitated using spin-trapping with DETC and EPR spectroscopy at 17 days post-immunization as described elsewhere. (For brain or spinal cord results are represented as follows: Left hand column: untreated. Center column: treated with c-PTIO. Right hand column: no EAE control)
FIG. 13. Effect of the administration of uric acid on brain and spinal cord NO levels and the clinical severity of EAE in SWXJ-14 mice. SWXJ-14 mice were immunized with PLP in CFA as described for FIG. 12 and treated once daily with the indicated doses of uric acid i.p. At day 16 post-immunization the animals were euthanized and NO levels in brain and spinal cord assessed as detailed for FIG. 3. Results are for individual mice. Each central white column represents the spinal cord NO level. The black column to the left of a white column represents the clinical severity score. The cross hatched column to the right of a white column represents the brain NO level.
as §6, §7, §8
At 16 days after immunization, several mice from each group were euthanized so that NO levels in their brains and spinal cords could be measured using spin-trapping and EPR spectroscopy.

Water solubility = assay type: physicochemical
[11] = rats, i.v. or i.p., estimated; cited from earlier work
[12] = mice, i.v. or i.p., estimated; cited from earlier work
[13] = system: experimental allergic encephalomyelitis (EAE), PLP immunization; assay: Survival of SWXJ-14 mice with EAE; assay type: in vivo
Protocol: FIG. 14. Comparison of the survival of SWXJ-14 mice with EAE treated with PTIO and uric acid. SWXJ-mice were immunized with PLP in CFA as described for FIG. 12 and treated once daily with a 2 mg dose of uric acid or PTIO i.p. from day 5 to day 13, followed by two daily doses on day 14 and three daily doses thereafterward.
To more directly compare the action of PTIO and uric acid in EAE we have administered each of these agents in parallel to PLP-immunized SWXJ-14 mice. In these experiments the mice were immunized with PLP and treated with increasing doses of PTIO or uric acid beginning at day 5 after immunization.

[14] = day 17 after immunization, one day after treatment ended
[15] = single daily dose of 100 mg/kg, day 17

## S=C(S)OC1CC2CC1C1CCCC21 (stereo not shown) [D609, tricyclodecan-9-yl-xanthogenate]
[1]; 1 mg daily i.p., day 5-14
  Onset of clinical symptoms of EAE (FIG. 4): delays the onset of the clinical symptoms of EAE
A549 cells
  Nitrite production by A549 cells (FIG. 5): completely inhibited nitrite production; also recorded: inhibits nitrite production
iNOS gene [2]
  Transcriptional activation of the iNOS gene: inhibits the transcriptional activation of the iNOS gene
iNOS gene [3]
  Transcriptional activation of the iNOS gene: inhibits the transcriptional activation of the iNOS gene
NF-κB [4]
  Activation of transcription factor NF-κB: inhibits
NF-κB [5]
  Activation of transcription factor NF-κB: inhibits
[6]
  Induction of iNOS: inhibits the induction of iNOS by blocking the activation of phosphatidylcholine-specific phospholipase C (PC-PLC)

## CC1(C)N([O])C(c2ccc(C(=O)O)cc2)=[N+]([O-])C1(C)C [carboxy-PTIO, 2-(4-carboxyphenyl)-4,4,5,5-tetramethylimidazoline-1-oxyl-3-oxide]
[7]
  Treatment of EAE mediated by T cell transfer: successfully treated
[8]; 2 mg once daily i.p. from day 10 post-immunization, n=6
  Onset and severity of EAE (FIG. 7): delayed onset of disease and somewhat lessened severity by comparison with untreated animals
[8]; SJL mice, i.p. administration
  Clinical symptoms of EAE: forestall the appearance of clinical symptoms of EAE
[8]; SJL mouse - immunization EAE, severity score 1-5, Table 2
  Clinical severity: 0.7
Nitric oxide (NO) [9]; 2 mg once daily i.p., day 18
  Brain NO increase (FIG. 8): also inhibited
  NO levels in spinal cord (FIG. 8): lower in the spinal cords
Nitric oxide (NO) [9]; SJL mice, i.p. administration
  Levels of NO in spinal cord: reduce levels of NO detected in spinal cord
Nitric oxide (NO) [9]; SJL mouse - immunization EAE, Table 2
  NO-spinal cord: 1.4 mM
[1]; carboxy-PTIO administration
  Overall NO production and therapeutic effect in SWXJ-14 mice: limited NO production to the spinal cord and had a clear therapeutic effect
[1]; single daily dose of 100 mg/kg
  Onset and severity of clinical symptoms of EAE (FIG. 9): delays the onset and reduces the severity of the clinical symptoms of EAE
[1]; two daily doses of 100 mg/kg
  Onset and severity of clinical symptoms of EAE (FIG. 2): delays the onset and reduces the severity of the clinical symptoms of EAE
[1]; two daily doses of approximately 2 mg
  Clinical course of EAE (FIG. 11): dramatically improves the clinical course of EAE by comparison with a single daily dose
Nitric oxide (NO) [10]; [14]
  NO levels in brain (FIG. 3): low levels of NO in brain tissue compared to untreated PLP-immunized controls
  NO levels in spinal cord (FIG. 3): somewhat less than the spinal cord NO levels detected in the surviving untreated animals
Nitric oxide (NO) [10]; [15]
  NO induction in brain (FIG. 10): prevented the induction of NO in brain
  NO levels in spinal cord (FIG. 10): somewhat less than the spinal cord NO levels detected in the surviving untreated animals
Water solubility
  Water solubility: water soluble
[11]
  Biological half-life in blood: less than five
[12]
  Biological half-life in blood: less than five

## Oc1nc(O)c2[nH]c(O)nc2n1 [uric acid, 2,6,8-trihydroxypurine]
[1]; high dose of uric acid
  Mice remaining healthy (FIG. 12): The majority of the mice treated with a high dose of uric acid remained healthy throughout the length of the experiment
[1]; uric acid once daily from day 5 post-immunization
  Onset and severity of clinical symptoms of EAE (FIG. 12): delays the onset and severity of the clinical symptoms of EAE in these animals in a dose dependent fashion
Nitric oxide (NO) [10]; day 16, mice that failed to show symptoms of EAE
  NO levels in spinal cord and brain (FIG. 13): significant levels of NO were detected in spinal cord and brain
[13]; at termination of the experiment
  Improvement in clinical signs of surviving mice (FIG. 14): a number were actually beginning to show some improvement in the clinical signs of their disease
[13]; several days after day 18, 2 mg i.p. once daily day 5-13, two doses day 14, then three daily
  Mice still alive (FIG. 14): 80%
